# PubChem BioAssay (NCI)
# “And” between values parts separate entries of the source, which are not always exact repeats. Equal entries are not always repeated.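 Grown in 96-well plates, cells were treated for 48 hours with each compound at five concentrations. Insufficient inhibition: endpoint recorded as highest concentration tested. Here, GI50 denotes the concentration required for 50% inhibition of growth. At the TGI there is no net growth.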
# How the values were obtained:
# Assay in all cases: DTP human tumour cell line panel, 48 h
# SK-MEL-28 melanoma = test system: SK-MEL-28 melanoma
# CAKI-1 renal = test system: CAKI-1 renal
# HL-60(TB) leukemia = test system: HL-60(TB) leukemia
# SNB-19 CNS = test system: SNB-19 CNS
# NCI-H23 lung = test system: NCI-H23 lung
# OVCAR-4 ovarian = test system: OVCAR-4 ovarian
# PC-3 prostate = test system: PC-3 prostate
# SR leukemia = test system: SR leukemia
# MDA-MB-231 breast = test system: MDA-MB-231 breast
# HOP-62 NSCLC = test system: HOP-62 NSCLC
# SK-MEL-5 melanoma = test system: SK-MEL-5 melanoma
SMILES,TGI (SK-MEL-28 melanoma) [µM],TGI (CAKI-1 renal),TGI (HL-60(TB) leukemia) [µM],TGI (SNB-19 CNS) [µM],TGI (NCI-H23 lung) [µM],TGI (OVCAR-4 ovarian) [µM],TGI (PC-3 prostate) [µM],TGI (SR leukemia) [µM],TGI (MDA-MB-231 breast) [µM],TGI (HOP-62 NSCLC),TGI (SK-MEL-5 melanoma) [µM],GI50 (CAKI-1 renal) [µM]
CC(C)c1cccc(C(C)C)c1NC(=O)C(=O)Cc1nc2ccc([N+](=O)[O-])cc2[nH]c1=O,> 100,> 100 µM,> 100,> 100,> 100,> 100,–,–,–,–,–,–
CN(C)CCN(C)P12(Oc3ccccc3O1)Oc1c(Cl)c(Cl)c(Cl)c(Cl)c1O2,> 100,–,40.9,> 100,> 100,> 100,> 100,> 100,> 100,> 100 µM,> 100,–
Clc1ccc(Nc2nnc(CNc3ccc(-c4nnc(Nc5ccc(Cl)cc5)s4)cc3)s2)cc1,> 100,> 100 µM,–,> 100,> 100,> 100,> 100,–,> 100,> 100 µM,79.3,–
[N-]=[N+]=Nc1ccccc1-c1ccccc1[N+](=O)[O-],> 100,> 100 µM,–,> 100,> 100,> 100,> 100,> 100,> 100,> 100 µM,–,–
O=c1[nH]nc(Cc2ccccc2)n1/N=C/c1cccs1,> 100,> 100 µM,–,> 100,> 100,> 100,> 100,–,> 100,> 100 µM,–,–
Cc1c(C)c2c(c(N)c1C#N)C(=O)N(O)C2=O,> 100,> 100 µM,> 100,> 100,> 100,> 100,> 100,> 100,> 100,–,> 100,–
COC(=O)C1CC2C=CC=CC(=O)C2(C)C1 (centres undefined),–,> 100 µM,55.1,> 100,> 100,> 100,–,76.5,–,> 100 µM,> 100,–
CCNC(=O)C(C)C1CCC2(C)C=CC(=O)C(C)=C2C1O (centres undefined),> 100,> 100 µM,> 100,> 100,> 100,> 100,–,–,–,> 100 µM,> 100,–
CC(C)Oc1c(C2(c3ccccc3)SCCCS2)c(=O)c1=O,> 100,> 100 µM,> 100,> 100,> 100,> 100,> 100,–,> 100,> 100 µM,> 100,–
OCC#CCNCl,> 100,–,> 100,> 100,> 100,> 100,–,–,–,> 100 µM,> 100,–
C/C(=C/C(=O)Nc1ccccc1)Nc1onc(C)c1C,> 100,–,> 100,> 100,> 100,> 100,–,–,–,> 100 µM,> 100,–
COc1ccc(Nc2nc3ccccc3n3cccc23)cc1OC,28.9,89.1 µM,9.51,> 100,27.9,–,23.9,37.7,40.1,32.7 µM,24.2,–
COC(=O)C1(NC(=O)C(Cc2ccccc2)N(C(=O)OC(C)(C)C)C(=O)OC(C)(C)C)CCCC1 (centres undefined),> 100,–,62.1,> 100,> 100,–,> 100,> 10,> 100,> 100 µM,> 100,–
Cc1cc2ncn(-c3nc4ccccc4nc3C(C#N)S(C)(=O)=O)c2cc1C (centres undefined),> 100,> 100 µM,> 100,> 100,> 100,> 100,–,> 100,–,> 100 µM,> 100,–
CC(=O)OI1NC(=O)c2ccccc21,> 100,–,> 100,> 100,> 100,> 100,> 100,> 100,> 100,> 100 µM,> 100,–
O=c1[nH]/c(=C/c2ccc3c(c2)OCO3)c(=O)[nH]/c1=C/c1ccc2c(c1)OCO2,> 10,> 10 µM,–,> 10,> 10,> 10,> 10,–,> 10,> 10 µM,> 10,–
C#CC[C@@H]1C(=O)N(Cc2ccc(OC)cc2)[C@@H](C(C)C)C(=O)N1Cc1ccc(OC)cc1,> 100,> 100 µM,8.53,> 100,> 100,> 100,> 100,–,> 100,> 100 µM,30.3,–
S=c1sc2c(s1)SC(c1ccccc1)CS2 (centres undefined),> 100,> 100 µM,> 100,> 100,> 100,> 88.2,–,–,–,> 100 µM,> 100,–
N#CC(NNC(=O)Cc1ccccc1)c1cccc(O)c1 (centres undefined),> 100,> 100 µM,> 100,–,> 100,> 100,–,> 100,–,> 100 µM,> 100,–
CC1=NN(c2nc(N)nc(NS(=O)(=O)c3cc(C)c(Cl)cc3S)n2)C(C)(C)C1,> 10,> 10 µM,> 10,> 10,> 10,> 10,> 10,> 10,–,> 10 µM,> 10,–
CC1=C(c2nc3ccccc3s2)C(=O)OC1(C)C,> 100,> 100 µM,–,> 100,> 100,> 100,–,> 100,–,> 100 µM,> 100,–
CCc1n[nH]c(=O)n1CCCCCCCCn1c(CC)n[nH]c1=O,–,> 100 µM,–,> 100,> 100,> 100,> 100,> 100,> 100,> 100 µM,> 100,–
CCCCCCCC/C=C1\CCC(CN(C)C)C1=O (centres undefined),13.3,10 µM,22.2,30.4,24.4,29.1,–,13.1,–,24.7 µM,21.7,–
Cn1c(=O)c2[nH]c(N=O)nc2n(C)c1=O,> 100,> 100 µM,> 100,–,> 100,> 100,> 100,–,> 100,> 100 µM,–,–

SMILES,TGI (SK-MEL-28 melanoma) [µM],TGI (CAKI-1 renal),TGI (HL-60(TB) leukemia) [µM],TGI (SNB-19 CNS) [µM],TGI (NCI-H23 lung) [µM],TGI (OVCAR-4 ovarian) [µM],TGI (PC-3 prostate) [µM],TGI (SR leukemia) [µM],TGI (MDA-MB-231 breast) [µM],TGI (HOP-62 NSCLC),TGI (SK-MEL-5 melanoma) [µM],GI50 (CAKI-1 renal) [µM]
CCOC(=O)c1c[nH]c(C(=O)OCC)c1-c1cccn1-c1ccccc1,79.5,67.7 µM,54.4,> 100,> 100,–,82.5,–,> 100,50 µM,28.4,–
O=S(O)CCCCCSSc1ccccc1,> 100,–,88.1,> 100,> 100,> 100,–,35,–,> 100 µM,–,–
Cc1ccc(S(=O)c2cccs2)cc1 (centres undefined),> 100,–,> 100,> 100,> 100,–,> 100,> 100,–,> 100 µM,–,–
O=C(Nc1ccc([N+](=O)[O-])cc1)Nn1cnnc1,> 100,> 100 µM,> 100,> 100,48.8,43.2,> 100,> 100,–,> 100 µM,> 100,–
Cc1c(O)c(=O)ccn1CCN,> 100,> 100 µM,–,> 100,> 100,> 100,–,–,–,–,–,–
CN(C)CCNc1ccc2ncn3c4ccccc4c(=O)c1c23,15.2,12.9 µM,> 100,47.5,14.5,5,–,> 100,–,19.4 µM,11.5,–
N#C/C(=C\c1ccncc1)c1csc2ccccc12,> 100,> 88 µM,35.5,69.6,> 79.8,> 100,–,–,–,63.3 µM,33.2,–
O=NN1C(c2ccccc2)CNC(=O)CC1c1ccccc1 (centres undefined),> 100,> 100 µM,> 68.8,> 93.2,97.9,> 100,–,–,–,> 100 µM,> 93.1,–
COc1cc2c(c(OC)c1OC)-c1ccc(SC)c(=O)cc1[C@@H](NCc1ccc(F)cc1)CC2,75,51.7 µM and > 100 µM,> 100,75,–,> 100,–,12.8,–,75 µM and 20.6 µM,–,< 0.0075
COc1cc(OC2OC(CO)C(O)C(O)C2O)c2c(O)c3c(=O)cc(C)oc3cc2c1 (centres undefined),> 100,> 100 µM,> 100,> 100,> 100,> 100,> 100,–,–,> 100 µM,> 100,–
C[C@@H](CC(O)C(O)C(C)(C)O)C1CCC23CC12CCC1[C@@]2(C)CCC(O)C(C)(C)C2CC(OC2OC(CO)C(O)C(O)C2O)[C@]13C (some centres undefined),> 10,> 10 µM,> 10,> 10,> 10,> 10,> 10,–,> 10,> 10 µM,> 10,–
O=C(CNc1ccccn1)Nn1cnc2ccc(S(=O)(=O)Nc3ccccn3)cc2c1=O,> 100,> 100 µM,> 100,> 100,> 100,> 100,> 100,> 100,> 100,> 100 µM,–,–
CC(C)(O)/C1=C/C=C/CCCCCCCCCC1,> 100,> 100 µM,98.6,> 100,> 100,–,> 100,> 100,> 100,> 100 µM,1.73,–
CCOC1OC(CO)C(O)CC1n1ccc(=O)[nH]c1=O (centres undefined),> 100,> 100 µM,–,> 100,> 100,> 100,> 100,–,> 100,–,> 100,–
CC1=CC2C(C=C1)S(=O)(=O)N1CC21c1ccccc1 (centres undefined),> 100,> 100 µM,> 100,> 100,> 100,–,–,> 100,–,> 100 µM,> 100,–
O=C(Cc1ccccc1)NN1C(=O)C(Cl)C1c1ccccc1Cl (centres undefined),> 100,> 100 µM,> 100,> 100,> 100,> 100,–,64.4,–,> 100 µM,> 100,–
C[C@]12C=CC(=O)C=C1CC[C@@H]1[C@@H]2CC[C@@]2(C)[C@H]1CC[C@]2(O)C(N)=O,> 100,–,> 100,> 100,> 100,> 100,> 100,> 100,> 100,> 100 µM,> 100,–
O=Cc1c[nH]c2c(=O)[nH]cnc12,> 100,> 100 µM,> 100,> 100,> 100,–,–,> 100,–,> 100 µM,> 100,–
O=C(O)c1nc2ccccc2nc1Nc1ccc(Cl)c(Cl)c1,75,77.9 µM,> 100,> 100,50.1,–,> 100,> 100,90,58 µM,47,–
FC(F)(F)c1ccc2c(c1)N(CCCNCCN1CCOCC1)c1ccccc1S2,17.3,–,22.2,30.1,24.7,–,–,21.8,–,27.1 µM,13.8,–
Nc1nc(NNc2cccc(F)c2)cc(=O)[nH]1,> 100,–,59.3,> 100,> 100,> 100,59.7,> 100,> 100,58.5 µM,> 100,–
O[C@]12C=C(c3nccc4c3[nH]c3ccccc34)[C@@H]3CCN(CCCC/C=C\CC1)C[C@@]31CC3/C=C\CCCCN3[C@H]12 (some centres undefined),2.76,6.17 µM,1.08,16.2,2.53,> 25.1,12,–,1.84,0.525 µM,0.34,–
CC(C)(C)OC(=O)NC1CCCC1C(=O)C1=CCCC1 (centres undefined),> 100,–,> 100,> 100,> 100,> 100,> 100,> 100,> 100,> 100 µM,> 100,–
CSc1ncnc2c1cnn2Cc1cn(COCCO)nn1,> 100,–,> 100,> 100,> 100,> 100,> 100,> 100,> 100,> 100 µM,> 100,–
